Measured values as given in US20260085073A1, “PYRAZOLYLCARBOXAMIDE COMPOUNDS AND THEIR USE IN THERAPY” (Hotspot Therapeutics, Inc., priority 2022, published 2026).

Target: T1, MALT1 (Homo sapiens, UniProt Q9UDY8)
T1 construct: Avi-tagged FL MALT-1 (Pharmaron, stored at −70° C.); Avi-tag
T1 sequence (Q9UDY8 1-824): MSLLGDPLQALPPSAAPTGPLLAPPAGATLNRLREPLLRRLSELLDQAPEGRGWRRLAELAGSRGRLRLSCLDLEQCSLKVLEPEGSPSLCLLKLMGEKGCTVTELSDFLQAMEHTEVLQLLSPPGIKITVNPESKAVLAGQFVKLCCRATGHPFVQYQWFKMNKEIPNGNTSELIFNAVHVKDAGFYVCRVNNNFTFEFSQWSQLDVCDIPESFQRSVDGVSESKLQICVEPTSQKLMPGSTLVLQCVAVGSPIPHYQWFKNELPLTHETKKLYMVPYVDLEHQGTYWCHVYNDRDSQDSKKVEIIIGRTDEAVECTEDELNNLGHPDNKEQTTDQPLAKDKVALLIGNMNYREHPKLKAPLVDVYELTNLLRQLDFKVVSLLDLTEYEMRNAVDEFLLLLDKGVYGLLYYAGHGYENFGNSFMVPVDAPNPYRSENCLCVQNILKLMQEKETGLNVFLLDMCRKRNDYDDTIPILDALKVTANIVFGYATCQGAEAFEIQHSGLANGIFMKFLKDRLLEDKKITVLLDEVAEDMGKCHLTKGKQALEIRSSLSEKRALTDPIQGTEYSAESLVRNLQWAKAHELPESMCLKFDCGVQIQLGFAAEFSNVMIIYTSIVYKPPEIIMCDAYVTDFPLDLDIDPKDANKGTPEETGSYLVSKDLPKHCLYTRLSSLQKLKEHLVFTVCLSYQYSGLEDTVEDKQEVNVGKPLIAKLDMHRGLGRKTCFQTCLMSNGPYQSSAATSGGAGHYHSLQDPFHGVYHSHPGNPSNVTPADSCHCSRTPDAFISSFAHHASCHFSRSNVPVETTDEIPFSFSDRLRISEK
Test: MALT1 inhibition assay (MALT-1 Fluorogenic Peptide Cleavage Assay, Ac-LRSR-AMC substrate)
Type: biochemical
Conditions: Avi-tagged FL MALT-1, 30 min pre-incubation, 90 min reaction at room temperature, fluorescence intensity
Summary of the method: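 Full-length Avi-tagged MALT1 pre-incubated 30 min at room temperature with compounds (2% DMSO final) in HEPES pH 6.89, sodium citrate, TCEP, EDTA, CHAPS buffer. Ac-LRSR-AMC added from 50 µM (Km) or […] working stocks; 90 min at room temperature, AMC fluorescence (ex 342/em 441 nm); IC50 from % inhibition curves.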

| IC50 | SMILES |
| --- | --- |
| > 10000 nM | Cn1nc(-c2n[nH]c3cnccc23)c(C(F)(F)F)c1C(=O)Nc1ccnc(C(F)(F)F)c1 [Compound I-201] |
| > 10000 nM | Cn1nc(-c2c[nH]c3ncncc23)c(C(F)(F)F)c1C(=O)Nc1ccnc(C(F)(F)F)c1 [Compound I-202, 1-methyl-3-(7H-pyrrolo[2,3-d]pyrimidin-5-yl)-4-(trifluoromethyl)-N-(2-(trifluoromethyl)pyridin-4-yl)-1H-pyrazole-5-carboxamide] |
| 2500 to 10000 nM | Cn1nc(-c2ccccc2CC(F)(F)F)cc1C(=O)Nc1ccnc(C(F)(F)F)c1 [Compound I-203, 1-methyl-3-(2-(2,2,2-trifluoroethyl)phenyl)-N-(2-(trifluoromethyl)pyridin-4-yl)-1H-pyrazole-5-carboxamide] |
| 2500 to 10000 nM | Cn1nc(C(=O)Nc2ccnc(C(F)(F)F)c2)c(C2CC2)c1-c1ccccc1 [Compound I-204, 4-cyclopropyl-1-methyl-5-phenyl-N-(2-(trifluoromethyl)pyridin-4-yl)-1H-pyrazole-3-carboxamide] |
| 500 to 2500 nM | Cn1nc(-c2ccccc2)c(C2CC2)c1C(=O)Nc1ccnc(C(F)(F)F)c1 [Compound I-205] |
| 500 to 2500 nM | Cn1nc(Oc2ccccc2)c(C(F)(F)F)c1C(=O)Nc1ccnc(C(F)(F)F)c1 [Compound I-206] |
| > 10000 nM | Cn1nc(-c2ccccc2)cc1C(=O)Nc1ccc(C(=O)N2CC(O)C2)c(Cl)c1 [Compound I-207] |
| 2500 to 10000 nM | Cn1nc(COc2ccccc2)c(C(F)(F)F)c1C(=O)Nc1ccnc(C(F)(F)F)c1 [Compound I-208] |
| 500 to 2500 nM | CN(c1ccccc1)c1nn(C)c(C(=O)Nc2ccnc(C(F)(F)F)c2)c1C(F)(F)F [Compound I-209] |
| < 500 nM | Cn1nc(-c2cccc3nscc23)c(C(F)(F)F)c1C(=O)Nc1ccnc(C(F)(F)F)c1 [Compound I-210, 3-(benzo[c]isothiazol-4-yl)-1-methyl-4-(trifluoromethyl)-N-(2-(trifluoromethyl)pyridin-4-yl)-1H-pyrazole-5-carboxamide] |
| 2500 to 10000 nM | O=C(Nc1cnc(-n2nccn2)c(Cl)c1)c1c(C(F)(F)F)c(-c2ccccc2)nn1CCO [Compound I-211, N-(5-chloro-6-(2H-1,2,3-triazol-2-yl)pyridin-3-yl)-1-(2-hydroxyethyl)-3-phenyl-4-(trifluoromethyl)-1H-pyrazole-5-carboxamide] |
| 2500 to 10000 nM | Cn1nc(-c2cccc3ncn(C)c23)c(C(F)(F)F)c1NC(=O)c1ccnc(C(F)(F)F)c1 [Compound I-221, N-(1-methyl-3-(1-methyl-1H-benzo[d]imidazol-7-yl)-4-(trifluoromethyl)-1H-pyrazol-5-yl)-2-(trifluoromethyl)isonicotinamide] |
| < 500 nM | Cn1nc(-c2cccc3nccn23)c(C(F)(F)F)c1C(=O)Nc1cnc(-n2nccn2)c(C(F)(F)F)c1 [Compound I-222] |
| 500 to 2500 nM | Cc1ccc2ncsc2c1-c1nn(C)c(C(=O)Nc2ccnc(C(F)(F)F)c2)c1C(F)(F)F [Compound I-223] |
| 500 to 2500 nM | Cn1nc(-c2cccc3cncn23)c(C(F)(F)F)c1C(=O)Nc1ccnc(C(F)(F)F)c1 [Compound I-224] |
| > 10000 nM | Cn1nc(-c2cnc3cnccn23)c(C(F)(F)F)c1C(=O)Nc1ccnc(C(F)(F)F)c1 [Compound I-225] |
| > 10000 nM | Cc1nc2cccc(-c3nn(C)c(C(=O)Nc4ccnc(C(F)(F)F)c4)c3C(F)(F)F)c2s1 [Compound I-226] |
| 2500 to 10000 nM | Cn1nc(-c2cccc3nccn23)c(C(F)(F)F)c1C(=O)Nc1ccnc(C2CC2)c1 [Compound I-227, N-(2-cyclopropylpyridin-4-yl)-3-(imidazo[1,2-a]pyridin-5-yl)-1-methyl-4-(trifluoromethyl)-1H-pyrazole-5-carboxamide] |
| > 10000 nM | Cc1cc(-c2nn(C)c(C(=O)Nc3ccnc(C(F)(F)F)c3)c2C(F)(F)F)n2ccnc2c1 [Compound I-228] |
| 2500 to 10000 nM | Cc1cn2c(-c3nn(C)c(C(=O)Nc4ccnc(C(F)(F)F)c4)c3C(F)(F)F)cccc2n1 [Compound I-229] |
| 500 to 2500 nM | Cn1nc(-c2cncc3ccsc23)c(C(F)(F)F)c1C(=O)Nc1ccnc(C(F)(F)F)c1 [Compound I-230] |
| > 10000 nM | Cn1nc(-c2n[nH]c3ncncc23)c(C(F)(F)F)c1C(=O)Nc1ccnc(C(F)(F)F)c1 [Compound I-231] |
| < 500 nM | COc1ccc2ncsc2c1-c1nn(C)c(C(=O)Nc2ccnc(C(F)(F)F)c2)c1C(F)(F)F [Compound I-232] |
| 2500 to 10000 nM | Cn1nc(-c2cccn3nncc23)c(C(F)(F)F)c1C(=O)Nc1ccnc(C(F)(F)F)c1 [Compound I-233] |
| > 10000 nM | Cn1nc(-c2ccc(F)c3ncsc23)c(C(F)(F)F)c1C(=O)Nc1ccnc(C(F)(F)F)c1 [Compound I-234] |
| 500 to 2500 nM | Cn1nc(-c2cccc3ncsc23)c(C(F)(F)F)c1C(=O)Nc1ccc(C(=O)N2CC(O)C2)c(Cl)c1 [Compound I-235] |

| IC50 | SMILES |
| --- | --- |
| 2500 to 10000 nM | Cn1nc(-c2cccc3cnoc23)c(C(F)(F)F)c1C(=O)Nc1ccnc(C(F)(F)F)c1 [Compound I-236] |
| 500 to 2500 nM | Cn1nc(-c2nccc3ccsc23)c(C(F)(F)F)c1C(=O)Nc1ccnc(C(F)(F)F)c1 [Compound I-237] |
| 2500 to 10000 nM | Cc1ccc(-c2nn(C)c(C(=O)Nc3ccnc(C(F)(F)F)c3)c2C(F)(F)F)n2ccnc12 [Compound I-238] |
| > 10000 nM | Cn1nc(-c2n[nH]c3ccncc23)c(C(F)(F)F)c1C(=O)Nc1ccnc(C(F)(F)F)c1 [Compound I-239] |
| 2500 to 10000 nM | Cn1nc(-c2cccc3ncccc23)c(C(F)(F)F)c1C(=O)Nc1ccc(C(=O)N2CC(O)C2)c(Cl)c1 [Compound I-240] |
| 2500 to 10000 nM | Cn1nc(-c2cccc3nccn23)c(C(F)(F)F)c1C(=O)Nc1ccc(C(=O)N2CC(O)C2)c(Cl)c1 [Compound I-241, N-(3-Chloro-4-(3-hydroxyazetidine-1-carbonyl)phenyl)-3-(imidazo[1,2-a]pyridin-5-yl)-1-methyl-4-(trifluoromethyl)-1H-pyrazole-5-carboxamide] |
| 2500 to 10000 nM | Cn1nc(-c2n[nH]c3ncccc23)c(C(F)(F)F)c1C(=O)Nc1ccnc(C(F)(F)F)c1 [Compound I-242] |
| 500 to 2500 nM | Cn1nc(-c2cccc3[nH]c(=O)sc23)c(C(F)(F)F)c1C(=O)Nc1ccnc(C(F)(F)F)c1 [Compound I-243] |
| 500 to 2500 nM | Cn1nc(-c2nsc3ccccc23)c(C(F)(F)F)c1C(=O)Nc1ccnc(C(F)(F)F)c1 [Compound I-244] |
| 500 to 2500 nM | Cn1nc(-c2cc(Cl)cc3nccn23)c(C(F)(F)F)c1C(=O)Nc1ccnc(C(F)(F)F)c1 [Compound I-245] |
| 2500 to 10000 nM | Cn1nc(-c2cccc3oncc23)c(C(F)(F)F)c1C(=O)Nc1ccnc(C(F)(F)F)c1 [Compound I-246] |
| 500 to 2500 nM | Cn1nc(-c2ccnc3nccn23)c(C(F)(F)F)c1C(=O)Nc1ccnc(C(F)(F)F)c1 [Compound I-247] |
| > 10000 nM | Cn1nc(-c2ccc(Cl)c3nccn23)c(C(F)(F)F)c1C(=O)Nc1ccnc(C(F)(F)F)c1 [Compound I-248] |
| 2500 to 10000 nM | Cn1nc(-c2cccc3[nH]c(=O)ccc23)c(C(F)(F)F)c1C(=O)Nc1ccnc(C(F)(F)F)c1 [Compound I-249] |
| 500 to 2500 nM | Cn1nc(-c2cccc3ncc(F)cc23)c(C(F)(F)F)c1C(=O)Nc1ccnc(C(F)(F)F)c1 [Compound I-250] |
| 500 to 2500 nM | Cn1nc(-c2c(F)ccc3nc(N)sc23)c(C(F)(F)F)c1C(=O)Nc1ccnc(C(F)(F)F)c1 [Compound I-251] |
| 2500 to 10000 nM | Cn1nc2c(c1C(=O)Nc1ccnc(C(F)(F)F)c1)CCCc1ccccc1-2 [Compound I-252] |
| > 10000 nM | Cn1nc(C(=O)Nc2ccnc(C(F)(F)F)c2)c2c1-c1ccccc1CCC2 [Compound I-253] |
| 500 to 2500 nM | Cn1nc2c(c1C(=O)Nc1cnc(-n3nccn3)c(Cl)c1)CCCc1ccccc1-2 [Compound I-254] |
| > 10000 nM | Cn1nc(C(=O)Nc2cnc(-n3nccn3)c(Cl)c2)c2c1-c1ccccc1CCC2 [Compound I-255] |
| > 10000 nM | Cn1nc2c(c1C(=O)Nc1cnc(-n3nccn3)c(Cl)c1)CCOc1ccccc1-2 [Compound I-256] |
| 2500 to 10000 nM | Cn1nc2c(c1C(=O)Nc1ccnc(C(F)(F)F)c1)CCc1ccccc1-2 [Compound I-258] |
| > 10000 nM | Cn1nc2c(c1C(=O)Nc1cnc(-n3nccn3)c(Cl)c1)CCc1ccccc1-2 [Compound I-259] |
| 500 to 2500 nM | Cn1nc(C(=O)Nc2ccnc(C(F)(F)F)c2)c2c1-c1ccccc1CC2 [Compound I-260] |
| < 500 nM | Cn1nc(-c2c(F)ccc3ncsc23)c(C(F)(F)F)c1C(=O)Nc1ccnc(C(F)(F)F)c1 [Compound I-280] |
| 2500 to 10000 nM | CNc1nc2cccc(-c3nn(C)c(C(=O)Nc4ccnc(C(F)(F)F)c4)c3C(F)(F)F)c2s1 [Compound I-281] |
